Source: publication PMC8459971, “Evaluation of the hepatotoxicity of the novel GPR40 (FFAR1) agonist CPL207280 in the rat and monkey” (PLoS ONE, 2021)
Several values for one entry are separate records, joined by “and”; a condition that tells them apart may be missing. Equal values may be shown once.

Experiments:
[1] = Repeat-dose study in monkeys, pharmacokinetics (14 and 56 days); settings: monkey; for AUC: exposure - AUC
[2] = Stability in microsomes, monkey; type: in vitro ADME; settings: for average DEG [%]: monkey microsomes, with cofactors
Description: (§1) The final incubation volume was 500 μL. Two control compounds (verapamil and donepezil) were included for each microsomal species, along with the appropriate vehicle control. The reactions were terminated by transferring 50 μL of incubate to 100 μL methanol containing an internal standard (metoprolol) at appropriate time points (0, 10, 20, 40, 60, and 120 min for the test compound and 0, 5, 10, 20, 40, and 60 min for the control compounds). The termination plates were centrifuged at 4000 x g at 4°C for 30 min to precipitate the protein. The supernatants were then collected for analysis, and LC-MS/MS was used for detection purposes. The system consisted of an Acquity™ Binary Solvent Manager, Acquity™ 4-position heated column manager, 2777 Ultra High Pressure Autosampler, and a Xevo-TQ MS triple quadrupole mass spectrometer (Waters Ltd., Herts, UK). This process was carried out twice.

[3] = Stability in microsomes, dog; type: in vitro ADME; settings: for average DEG [%]: dog microsomes, with cofactors
Description: as §1

[4] = dose 50 mg/kg, Day 1, individual animals, 50 mg/kg
[5] = dose 50 mg/kg, Day 14, individual animals, 50 mg/kg
[6] = dose 100 mg/kg, Day 1, individual animals, 100 mg/kg
[7] = dose 100 mg/kg, Day 14, individual animals, 100 mg/kg
[8] = dose 150 mg/kg, Day 1, individual animals, 150 mg/kg
[9] = dose 150 mg/kg, Day 56, individual animals, 150 mg/kg
[10] = dose 200 mg/kg, Day 1, individual animals, 200 mg/kg
[11] = dose 200 mg/kg, Day 14, individual animals, 200 mg/kg
[12] = Monkey (Cynomolgus) microsomes, mean n = 2
[13] = Dog (Beagle) microsomes, mean n = 2

CC#C[C@@H](CC(=O)O)c1ccc(OCC(C)=C(C)C)cc1 [CPL207280] showed an AUC ([1]; both, Cynomolgus, plasma, po, 100 mg/kg, dose 100 mg/kg, Day 1, individual animals) of 334 µg·h/mL, an AUC ([1]; both, Cynomolgus, plasma, po, 100 mg/kg, dose 100 mg/kg, Day 14, individual animals) of 552 µg·h/mL and a Cmax ([1]; both, cynomolgus, plasma, po, 50 mg/kg, Cmax, dose 50 mg/kg, Day 1, individual animals) of 38.5 µg/mL. For the same molecule, the Cmax ([1]; both, cynomolgus, plasma, po, 50 mg/kg, Cmax, dose 50 mg/kg, Day 14, individual animals) was 59.8 µg/mL, the AUC ([1]; both, cynomolgus, plasma, po, 200 mg/kg, dose 200 mg/kg, Day 1, individual animals) was 794 µg·h/mL and the AUC ([1]; both, cynomolgus, plasma, po, 200 mg/kg, dose 200 mg/kg, Day 14, individual animals) was 919 µg·h/mL. The Cmax ([1]; both, plasma, po, 200 mg/kg, Cmax, dose 200 mg/kg, Day 1, individual animals) was 258 µg/mL, the Cmax [1, 4] was 54.2432 µg/mL and 70.1198 µg/mL and 73.0824 µg/mL and the “exposure - AUC” value [1, 4] was 85.565 µg·h/mL and 262.448 µg·h/mL and 140.708 µg·h/mL and 87.498 µg·h/mL and 100.461 µg·h/mL and 109.347 µg·h/mL and 254.256 µg·h/mL and 110.743 µg·h/mL and 146.423 µg·h/mL and 105.958 µg·h/mL and 142.73 µg·h/mL and 220.718 µg·h/mL. For the same molecule, the Cmax [1, 5] was 77.3656 µg/mL and 85.376 µg/mL and 71.8017 µg/mL, the “exposure - AUC” value [1, 5] was 101.909 µg·h/mL and 132.812 µg·h/mL and 431.268 µg·h/mL and 124.571 µg·h/mL and the “exposure - AUC” value ([1]; dose 50 mg/kg, Day 56, individual animals, 50 mg/kg) was 150.303 µg·h/mL and 89.075 µg·h/mL and 182.055 µg·h/mL and 206.125 µg·h/mL and 124.755 µg·h/mL and 213.673 µg·h/mL and 113.523 µg·h/mL and 83.328 µg·h/mL. For the same molecule, the Cmax [1, 6] was 47.7304 µg/mL and 196.843 µg/mL and 120.978 µg/mL and 122.802 µg/mL, the “exposure - AUC” value [1, 6] was 385.402 µg·h/mL and 219.918 µg·h/mL and 309.18 µg·h/mL and the Cmax [1, 7] was 59.7137 µg/mL and 97.7733 µg/mL and 114.927 µg/mL and 30.391 µg/mL. The “exposure - AUC” value [1, 7] was 540.113 µg·h/mL and 349.314 µg·h/mL and 371.77 µg·h/mL, the Cmax [1, 8] was 174.84 µg/mL and 194.31 µg/mL and 41.31 µg/mL and 61.81 µg/mL and 148.23 µg/mL and 203.64 µg/mL and 215.41 µg/mL and 167.94 µg/mL and the “exposure - AUC” value [1, 8] was 687.155 µg·h/mL and 716.453 µg·h/mL and 299.365 µg·h/mL and 303.408 µg·h/mL and 583.353 µg·h/mL and 708.01 µg·h/mL and 517.538 µg·h/mL and 598.748 µg·h/mL. The Cmax [1, 9] was 206.99 µg/mL and 230.13 µg/mL and 188.65 µg/mL and 99.77 µg/mL and 256.14 µg/mL and 172.69 µg/mL and 25.09 µg/mL and 47.76 µg/mL, the “exposure - AUC” value [1, 9] was 476.098 µg·h/mL and 561.835 µg·h/mL and 462.75 µg·h/mL and 833.928 µg·h/mL and 555.34 µg·h/mL and 670.743 µg·h/mL and 435.418 µg·h/mL and 360.168 µg·h/mL and the Cmax [1, 10] was 146.587 µg/mL and 153.261 µg/mL and 191.742 µg/mL. For the same molecule, the “exposure - AUC” value [1, 10] was 842.687 µg·h/mL and 783.604 µg·h/mL and 691.713 µg·h/mL, the Cmax [1, 11] was 263.213 µg/mL and 90.4785 µg/mL and 181.854 µg/mL and 224.986 µg/mL and the “exposure - AUC” value [1, 11] was 610.926 µg·h/mL and 654.718 µg·h/mL and 646.623 µg·h/mL. For the same molecule, the “exposure - AUC” value ([1]; dose 250 mg/kg, Day 1, individual animals, 250 mg/kg) was 1583.82 µg·h/mL and 721.808 µg·h/mL and 793.135 µg·h/mL and 1183 µg·h/mL and 1366.178 µg·h/mL and 895.14 µg·h/mL and 850.363 µg·h/mL and 1425.683 µg·h/mL and 1258.01 µg·h/mL and 575.98 µg·h/mL and 469.06 µg·h/mL and 783 µg·h/mL, the “exposure - AUC” value ([1]; dose 250 mg/kg, Day 56, individual animals, 250 mg/kg) was 1170.11 µg·h/mL and 1015.218 µg·h/mL and 686.383 µg·h/mL and 1887.035 µg·h/mL and 975.73 µg·h/mL and 1235.128 µg·h/mL and 1213.253 µg·h/mL and 997.608 µg·h/mL and 1100.488 µg·h/mL and 1004.075 µg·h/mL and 831.145 µg·h/mL and 1255.683 µg·h/mL and the half-life at 3 μM [2, 12] was 23 min. The microsomal CLint at 3 μM [2, 12] was 60.9 µL/min/mg, the “average DEG [%]” value ([2]; 0 min) was 100.0% and the “average DEG [%]” value ([2]; 20 min) was 64.8%. The “average DEG [%]” value ([2]; 40 min) was 34.1%, the “average DEG [%]” value ([2]; 60 min) was 16.3% and the half-life at 3 μM [3, 13] was 81 min. For the same molecule, the microsomal CLint at 3 μM [3, 13] was 17.1 µL/min/mg, the “average DEG [%]” value ([3]; 0 min) was 100.0% and the “average DEG [%]” value ([3]; 20 min) was 86.5%. For the same molecule, the “average DEG [%]” value ([3]; 40 min) was 74.9% and the “average DEG [%]” value ([3]; 60 min) was 59.3%.
